The nature of data set [1]: MDR1 LLC-PK1 and BCRP MDCKII permeability assay: permeability coefficient (Papp). The format is in vitro ADME. The text has this:
(§1) Final organic concentration in the assay was 1%.

A further data set concerns the target P-gp (MDR1) (Homo sapiens (Human), UniProt P08183). In words: MDR1 LLC-PK1 permeability assay: efflux ratio. The format is in vitro ADME. The conditions noted are these: pig.
Description: as §1

The subject of the next data set is A375 cells. As to the kind of experiment: Cellular phospho-ERK inhibition assay in A375 cells. The format is cell-based. The conditions noted are these: Homo sapiens, A-375, A375 cells (head prints A357), 2 hours treatment, read-out: A357 cell IC50. The method, boiled down:
(§2)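 In Cell Western detection of phospho-ERK1/2 (Thr202/Tyr204) over GAPDH after 2 h compound exposure (66 pM to 10 μM, 9 points, 0.25% DMSO) of A375 cells in DMEM or H1755 cells in RPMI, both with 10% FBS. Percent of control set by DMSO and 10 μM binimetinib; 4-parameter IC50.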

For another data set, the target named is BCRP (Homo sapiens (Human), UniProt Q9UNQ0). As to the kind of experiment: BCRP MDCKII permeability assay: efflux ratio. It is filed as in vitro ADME. The conditions noted are these: dog.
BCRP, sequence (Q9UNQ0 whole entry): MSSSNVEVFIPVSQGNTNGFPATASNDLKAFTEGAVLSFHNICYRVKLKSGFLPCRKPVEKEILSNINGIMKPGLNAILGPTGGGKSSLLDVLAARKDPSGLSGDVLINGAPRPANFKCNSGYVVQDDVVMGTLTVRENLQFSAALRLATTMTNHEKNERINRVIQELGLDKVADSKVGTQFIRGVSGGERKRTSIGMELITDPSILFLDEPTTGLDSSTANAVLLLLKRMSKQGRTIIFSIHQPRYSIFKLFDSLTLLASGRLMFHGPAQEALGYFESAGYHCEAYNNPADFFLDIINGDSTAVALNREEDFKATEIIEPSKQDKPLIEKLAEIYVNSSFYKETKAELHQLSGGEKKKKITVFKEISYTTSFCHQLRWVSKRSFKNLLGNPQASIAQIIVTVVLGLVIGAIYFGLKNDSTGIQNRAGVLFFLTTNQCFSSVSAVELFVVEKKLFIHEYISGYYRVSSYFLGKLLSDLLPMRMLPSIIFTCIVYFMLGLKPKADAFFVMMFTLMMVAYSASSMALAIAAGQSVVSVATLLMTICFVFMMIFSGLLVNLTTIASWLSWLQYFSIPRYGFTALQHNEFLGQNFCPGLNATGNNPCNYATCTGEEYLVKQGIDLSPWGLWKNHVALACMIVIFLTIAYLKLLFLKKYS
The subject of a further data set is H1755 cells. As to the kind of experiment: Cellular phospho-ERK inhibition assay in H1755 cells. The format is cell-based. To be noted: Homo sapiens, NCI-H1755, 2 hours treatment, read-out: H1755 Cell IC50. The method, boiled down:
as §2

For data set [2], the target named is full-length FLAG-tagged B-Raf(V600E) (Homo sapiens (Human), UniProt P15056, V600E). In words: BRAF V600E enzyme assay (TR-FRET competitive displacement). The format is binding. To be noted: averaged IC50; TR-FRET tracer displacement, 60 min. The method, boiled down: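 TR-FRET tracer competition: compound (top dose 10 μM, 3-fold, 11 points) incubated 60 min at ambient temperature with FLAG-tagged full-length B-Raf(V600E) (5 nM), Eu anti-FLAG cryptate (0.5 nM) and tracer (50 nM), pH 7.4 HEPES/MgCl2 buffer. 665/615 ratio converted to percent of control; IC50 where fitted curve crosses 50 POC.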
full-length FLAG-tagged B-Raf(V600E), sequence (P15056 whole entry V600E): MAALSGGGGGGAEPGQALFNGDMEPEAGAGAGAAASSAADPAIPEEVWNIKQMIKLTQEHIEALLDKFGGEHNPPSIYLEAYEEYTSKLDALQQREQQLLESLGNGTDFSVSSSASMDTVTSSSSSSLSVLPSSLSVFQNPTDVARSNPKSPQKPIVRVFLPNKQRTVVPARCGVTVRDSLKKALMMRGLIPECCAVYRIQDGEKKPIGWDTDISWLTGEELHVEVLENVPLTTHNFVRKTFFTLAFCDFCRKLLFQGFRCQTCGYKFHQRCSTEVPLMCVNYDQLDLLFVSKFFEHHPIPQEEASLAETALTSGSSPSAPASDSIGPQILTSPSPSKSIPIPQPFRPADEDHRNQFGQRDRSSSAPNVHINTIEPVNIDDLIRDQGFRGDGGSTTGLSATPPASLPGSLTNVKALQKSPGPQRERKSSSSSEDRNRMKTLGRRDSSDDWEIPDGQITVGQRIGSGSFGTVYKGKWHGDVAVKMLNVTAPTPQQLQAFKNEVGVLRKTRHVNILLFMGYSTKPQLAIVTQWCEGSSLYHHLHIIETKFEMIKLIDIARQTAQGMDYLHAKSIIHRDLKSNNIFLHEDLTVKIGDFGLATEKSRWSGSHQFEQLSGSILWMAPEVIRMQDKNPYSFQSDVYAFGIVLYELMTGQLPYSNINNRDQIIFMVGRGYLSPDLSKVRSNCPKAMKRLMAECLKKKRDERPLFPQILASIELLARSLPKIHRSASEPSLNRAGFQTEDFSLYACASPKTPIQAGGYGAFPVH
In general terms: TR-FRET usually uses a lanthanide donor and a delayed reading to cut background.

This note sets out measurements from patent US12303509B2, “Compounds for the treatment of BRAF-associated diseases and disorders” (Pfizer Inc., priority 2020, dated 2025).

Broadly, the Papp is the rate of passage across a membrane or cell layer, normalised by area and donor concentration. High values mean fast passage, low ones slow passage. In general, efflux ratio refers to a quotient of directional permeabilities that is used to spot active efflux. As a reminder, the IC50 is the concentration that gives 50% inhibition.

Structures can show the parent of a compound that is named as a salt.

P-gp (MDR1), sequence (P08183 whole entry, species assumed): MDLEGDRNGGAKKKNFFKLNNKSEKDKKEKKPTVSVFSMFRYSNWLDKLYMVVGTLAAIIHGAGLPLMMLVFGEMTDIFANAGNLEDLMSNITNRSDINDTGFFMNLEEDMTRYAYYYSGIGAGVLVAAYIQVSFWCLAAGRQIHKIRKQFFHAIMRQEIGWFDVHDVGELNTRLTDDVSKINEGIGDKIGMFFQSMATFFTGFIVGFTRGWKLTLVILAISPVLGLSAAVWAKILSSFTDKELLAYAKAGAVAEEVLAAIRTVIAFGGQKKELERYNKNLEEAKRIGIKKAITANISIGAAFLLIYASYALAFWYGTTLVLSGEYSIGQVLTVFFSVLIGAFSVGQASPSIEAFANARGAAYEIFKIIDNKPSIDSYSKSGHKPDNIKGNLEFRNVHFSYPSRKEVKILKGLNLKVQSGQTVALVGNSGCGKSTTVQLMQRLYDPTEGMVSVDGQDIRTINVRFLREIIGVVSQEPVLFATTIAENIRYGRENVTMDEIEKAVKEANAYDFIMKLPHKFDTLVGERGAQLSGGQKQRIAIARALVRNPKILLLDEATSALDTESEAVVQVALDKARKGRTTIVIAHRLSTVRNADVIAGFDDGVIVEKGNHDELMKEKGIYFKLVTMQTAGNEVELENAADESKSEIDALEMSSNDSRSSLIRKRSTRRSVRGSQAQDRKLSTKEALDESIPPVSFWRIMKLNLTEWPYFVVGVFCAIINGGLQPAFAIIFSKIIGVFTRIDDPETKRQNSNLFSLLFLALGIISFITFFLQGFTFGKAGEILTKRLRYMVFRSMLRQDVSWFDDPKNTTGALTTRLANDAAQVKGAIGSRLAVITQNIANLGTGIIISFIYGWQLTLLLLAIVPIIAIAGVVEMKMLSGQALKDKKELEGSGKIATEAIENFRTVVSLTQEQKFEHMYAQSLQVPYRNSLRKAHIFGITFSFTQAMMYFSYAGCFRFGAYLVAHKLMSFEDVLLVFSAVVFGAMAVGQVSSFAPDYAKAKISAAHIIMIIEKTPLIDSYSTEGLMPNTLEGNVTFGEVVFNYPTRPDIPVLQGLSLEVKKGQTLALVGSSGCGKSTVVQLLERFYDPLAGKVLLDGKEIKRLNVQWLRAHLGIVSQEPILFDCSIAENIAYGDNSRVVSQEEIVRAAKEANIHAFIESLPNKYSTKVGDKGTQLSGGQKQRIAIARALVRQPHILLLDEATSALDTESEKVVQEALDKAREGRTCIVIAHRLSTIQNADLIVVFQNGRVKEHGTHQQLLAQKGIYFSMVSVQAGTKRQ

With `CO[C@@H]1CCN(S(=O)(=O)Nc2cc(F)c(F)c(Nc3ccc4ncn(C)c(=O)c4c3Cl)c2F)C1` [Example 34, (R)-N-(3-((5-chloro-3-methyl-4-oxo-3,4-dihydroquinazolin-6-yl)amino)-2,4,5-trifluorophenyl)-3-methoxypyrrolidine-1-sulfonamide], the Papp at 2 h, 1 µM in data set [1] was found to be 30 ×10⁻⁶ cm/s. The efflux ratio at 2 h, 1 µM at P-gp (MDR1) was found to be 2.9; at BCRP it was 2.6. Also, the IC50 with A375 cells is 4 nM; in the data set on H1755 cells, 54 nM; in data set [2], 4 nM.

Compound `Cc1c(Nc2c(F)c(F)cc(NS(=O)(=O)N3CC[C@@H](F)C3)c2Cl)ccc2ncn(C)c(=O)c12` [Example 35, (R)-N-(2-chloro-3-((3,5-dimethyl-4-oxo-3,4-dihydroquinazolin-6-yl)amino)-4,5-difluorophenyl)-3-fluoropyrrolidine-1-sulfonamide] returned a Papp at 2 h, 1 µM in data set [1] of 31 ×10⁻⁶ cm/s. In addition, the efflux ratio at 2 h, 1 µM came out at 1.5 on P-gp (MDR1) and 2.1 at BCRP. In addition, the IC50 in the data set with A375 cells stood at 21 nM; in the data set with H1755 cells, 163 nM; in data set [2] it was 2 nM.

`Cn1cnc2ccc(Nc3c(F)c(F)cc(NS(=O)(=O)N4CC[C@@H](F)C4)c3F)c(Cl)c2c1=O` [Example 36, (R)-N-(3-((5-chloro-3-methyl-4-oxo-3,4-dihydroquinazolin-6-yl)amino)-2,4,5-trifluorophenyl)-3-fluoropyrrolidine-1-sulfonamide trifluoroacetate]: the Papp at 2 h, 1 µM in data set [1] came out at 25 ×10⁻⁶ cm/s. Also, the efflux ratio at 2 h, 1 µM at P-gp (MDR1) was 2.9; at BCRP it was 9.9. Moreover, the IC50 in the data set on A375 cells came to 5 nM; with H1755 cells, 61 nM; in data set [2], 1 nM.

As for `Cn1cnc2ccc(Oc3c(F)ccc(NS(=O)(=O)N4CCCC4)c3Cl)c(Cl)c2c1=O` [Example 39, N-(2-chloro-3-((5-chloro-3-methyl-4-oxo-3,4-dihydroquinazolin-6-yl)oxy)-4-fluorophenyl)pyrrolidine-1-sulfonamide], the Papp at 2 h, 1 µM in data set [1] stood at 23 ×10⁻⁶ cm/s. In addition, the efflux ratio at 2 h, 1 µM at P-gp (MDR1) came out at 1.3; at BCRP, 0.9. For the same compound, the results for the IC50 (in the data set on A375 cells; in the data set with H1755 cells; in data set [2]) were 8 nM, 55 nM and 3 nM, respectively.

As for `O=c1c2c(F)c(Nc3c(F)ccc(NS(=O)(=O)N4CCCC4)c3Cl)ccc2ncn1CF` [Example 42, N-(2-chloro-4-fluoro-3-((5-fluoro-3-(fluoromethyl)-4-oxo-3,4-dihydroquinazolin-6-yl)amino)phenyl)pyrrolidine-1-sulfonamide trifluoroacetate], the Papp at 2 h, 1 µM in data set [1] was determined as 27 ×10⁻⁶ cm/s. The efflux ratio at 2 h, 1 µM at P-gp (MDR1) came out at 1.8; on BCRP, 2.4. Further, the IC50 in the data set on A375 cells came out at 4 nM; with H1755 cells it was 42 nM; in data set [2], 2 nM.

In the case of `Cn1cnc2ccc(Nc3c(F)c(F)cc(NS(=O)(=O)N4CCCC4)c3F)c(Cl)c2c1=O` [Example 43, N-(3-((5-chloro-3-methyl-4-oxo-3,4-dihydroquinazolin-6-yl)amino)-2,4,5-trifluorophenyl)pyrrolidine-1-sulfonamide trifluoroacetate], the Papp at 2 h, 1 µM in data set [1] came out at 32 ×10⁻⁶ cm/s. The efflux ratio at 2 h, 1 µM at P-gp (MDR1) amounted to 1.8; at BCRP, 1.9. Moreover, the results for the IC50 (with A375 cells; in the data set on H1755 cells; in data set [2]) were 4 nM, 45 nM and 1 nM, respectively.

In data set [1], `CCN(C)S(=O)(=O)Nc1cc(F)c(F)c(Nc2ccc3ncn(C)c(=O)c3c2F)c1Cl` [Example 45, N-(2-chloro-4,5-difluoro-3-((5-fluoro-3-methyl-4-oxo-3,4-dihydroquinazolin-6-yl)phenyl)-(N-ethyl-N-methyl)-sulfamide trifluoroacetate] came in with a Papp at 2 h, 1 µM of 40 ×10⁻⁶ cm/s. The efflux ratio at 2 h, 1 µM at P-gp (MDR1) and at BCRP was 1.6 in each case. Also, the IC50 stood at 4 nM with A375 cells, 102 nM in the data set with H1755 cells and 4 nM in data set [2].
